IC50 data for 29 molecules are collected here from US20220388964A1 (HiberCell, Inc., priority 2019, published 2022).

For this test, the target named is GCN2 (Homo sapiens, UniProt Q9P2K8). The test can be described thus: TR-FRET biochemical assay for inhibition of GCN2 (Example 106, for Example 1-4BB). In general terms: Time-resolved FRET reads energy transfer from a long-lived donor to a nearby acceptor.

The structures appear in SMILES notation.

Chain of GCN2 (Q9P2K8 whole entry): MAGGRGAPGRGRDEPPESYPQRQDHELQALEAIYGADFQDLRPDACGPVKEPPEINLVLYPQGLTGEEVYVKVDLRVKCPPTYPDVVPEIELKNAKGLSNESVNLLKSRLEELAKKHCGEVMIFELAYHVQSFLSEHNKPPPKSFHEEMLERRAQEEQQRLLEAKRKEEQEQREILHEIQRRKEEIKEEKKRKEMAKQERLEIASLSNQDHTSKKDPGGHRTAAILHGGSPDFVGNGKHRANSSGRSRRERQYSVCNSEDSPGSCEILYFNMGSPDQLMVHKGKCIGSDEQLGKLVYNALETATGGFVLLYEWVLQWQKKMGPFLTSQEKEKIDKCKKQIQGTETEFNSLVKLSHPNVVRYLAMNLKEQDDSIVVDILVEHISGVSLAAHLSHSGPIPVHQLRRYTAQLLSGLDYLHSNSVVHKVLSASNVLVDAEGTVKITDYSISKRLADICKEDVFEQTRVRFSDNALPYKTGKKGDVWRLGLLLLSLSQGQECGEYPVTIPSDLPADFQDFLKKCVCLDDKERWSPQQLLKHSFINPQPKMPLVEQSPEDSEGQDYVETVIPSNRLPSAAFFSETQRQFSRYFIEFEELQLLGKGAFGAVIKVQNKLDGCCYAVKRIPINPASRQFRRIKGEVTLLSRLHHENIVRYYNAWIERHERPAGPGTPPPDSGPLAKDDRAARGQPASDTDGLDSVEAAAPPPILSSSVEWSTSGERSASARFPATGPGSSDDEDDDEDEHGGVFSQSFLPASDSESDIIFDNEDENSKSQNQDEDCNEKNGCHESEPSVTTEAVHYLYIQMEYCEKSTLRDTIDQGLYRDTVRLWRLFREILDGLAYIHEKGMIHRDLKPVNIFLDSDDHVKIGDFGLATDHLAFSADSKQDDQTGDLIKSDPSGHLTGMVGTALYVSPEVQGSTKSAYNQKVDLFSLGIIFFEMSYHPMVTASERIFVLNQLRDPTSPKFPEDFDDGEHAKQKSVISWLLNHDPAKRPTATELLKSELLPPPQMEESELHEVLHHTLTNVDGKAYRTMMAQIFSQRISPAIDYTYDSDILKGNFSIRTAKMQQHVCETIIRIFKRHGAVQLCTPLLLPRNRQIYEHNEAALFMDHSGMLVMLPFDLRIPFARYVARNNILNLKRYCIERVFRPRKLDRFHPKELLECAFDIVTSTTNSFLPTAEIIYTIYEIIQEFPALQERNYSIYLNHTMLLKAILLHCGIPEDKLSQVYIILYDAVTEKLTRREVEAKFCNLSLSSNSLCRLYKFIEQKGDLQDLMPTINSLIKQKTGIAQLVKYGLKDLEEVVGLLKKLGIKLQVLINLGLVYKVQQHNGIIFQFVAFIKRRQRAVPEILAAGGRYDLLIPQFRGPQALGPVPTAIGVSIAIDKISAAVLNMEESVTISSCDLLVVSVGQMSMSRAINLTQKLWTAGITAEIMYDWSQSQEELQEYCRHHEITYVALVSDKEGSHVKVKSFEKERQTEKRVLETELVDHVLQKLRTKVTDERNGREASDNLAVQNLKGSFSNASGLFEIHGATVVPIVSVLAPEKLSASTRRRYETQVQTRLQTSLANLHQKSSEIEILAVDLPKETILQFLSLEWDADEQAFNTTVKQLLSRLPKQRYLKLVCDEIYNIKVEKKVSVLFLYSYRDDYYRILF

In the case of `COc1ncc(F)cc1S(=O)(=O)Nc1ccc(F)c(-c2ccc3c(C(=O)Nc4ccc(C)nc4)n[nH]c3c2F)c1F` [Example 3BX, 6-(2,6-difluoro-3-((5-fluoro-2-methoxypyridine)-3-sulfonamido)phenyl)-7-fluoro-N-(6-methylpyridin-3-yl)-1H-indazole-3-carboxamide], the concentration for half-maximal inhibition (IC50) (Table 9) was less than 500 nM.

Where the note is “Table 9”, `COc1ncc(F)cc1S(=O)(=O)Nc1cc(F)cc(-c2ccc3c(-c4ncc[nH]4)n[nH]c3c2F)c1F` [Example 3AS, N-(2,5-difluoro-3-(7-fluoro-3-(1H-imidazol-2-yl)-1H-indazol-6-yl)phenyl)-5-fluoro-2-methoxypyridine-3-sulfonamide] yielded a half-inhibitory concentration (IC50) of less than 500 nM.

Molecule `COc1ncc(Cl)cc1S(=O)(=O)Nc1ccc(F)c(-c2ccc3c(C(=O)Nc4cn[nH]n4)n[nH]c3c2F)c1F` [Example 3DF, 6-(3-((5-chloro-2-methoxy-pyridine)-3-sulfonamido)-2,6-difluorophenyl)-7-fluoro-1H-(2H-1,2,3-triazol-4-yl)-1H-indazole-3-carboxamide] came in with an IC50 (Table 9) of 500 to 2500 nM.

With `CNC(=O)c1n[nH]c2c(F)c(-c3c(F)cnc(NS(=O)(=O)c4cc(F)cnc4C)c3F)ccc12` [Example 24, 6-(3,5-Difluoro-2-((5-fluoro-2-methylpyridine)-3-sulfonamido)pyridin-4-yl)-7-fluoro-N-methyl-1H-indazole-3-carboxamide], the IC50 (Table 9) was greater than 10000 nM.

Take `Cc1ncc(Cl)cc1S(=O)(=O)Nc1ccc(F)c(-c2ccc3c(-c4ncc[nH]4)n[nH]c3c2F)c1F` [Example 2CM, 5-chloro-N-(2,4-difluoro-3-(7-fluoro-3-(1H-imidazol-2-yl)-1H-indazol-6-yl)phenyl)-2-methylpyridine-3-sulfonamide]: the IC50 (Table 8) was less than 500 nM.

With `Cc1ncc(F)cc1S(=O)(=O)Nc1ccc(F)c(-c2ccc3c(-c4cccc(=O)[nH]4)n[nH]c3c2F)c1F` [Example 15, N-(2,4-Difluoro-3-(7-fluoro-3-(6-oxo-1,6-dihydropyridin-2-yl)-1H-indazol-6-yl)phenyl)-5-fluoro-2-methylpyridine-3-sulfonamide], for the setting “Table 9”, the IC50 was less than 500 nM.

Turning to `COc1ncc(F)cc1S(=O)(=O)Nc1ccc(F)c(-c2ccc3c(C(=O)Nc4cn[nH]c4)n[nH]c3c2F)c1F` [Example 3BO, 6-(2,6-difluoro-3-((5-fluoro-2-methoxypyridine)-3-sulfonamido)phenyl)-7-fluoro-N-(1H-pyrazol-4-yl)-1H-indazole-3-carboxamide], the IC50 (Table 9) is less than 500 nM.

Where the note is “Table 9”, `Cc1ncc(C#N)cc1S(=O)(=O)Nc1ccc(F)c(-c2ccc3c(C(N)=O)n[nH]c3c2F)c1F` [Example 4E] yielded a 50% inhibitory concentration (IC50) of less than 500 nM.

Under “Table 9”, `COc1nc(C)c(C#N)cc1S(=O)(=O)Nc1ccc(F)c(-c2ccc3c(-c4ncc[nH]4)n[nH]c3c2F)c1F` [Example 3DK, 5-cyano-N-(2,4-difluoro-3-(7-fluoro-3-(1H-imidazol-2-yl)-1H-indazol-6-yl)phenyl)-2-methoxy-6-methylpyridine-3-sulfonamide] showed an IC50 of less than 500 nM.

`Cn1cc(S(=O)(=O)Nc2ccc(F)c(-c3ccc4c(-c5ncc[nH]5)n[nH]c4c3F)c2F)nn1` [Example 2W, N-(2,4-difluoro-3-(7-fluoro-3-(1H-imidazol-2-yl)-1H-indazol-6-yl)phenyl)-1-methyl-1H-1,2,3-triazole-4-sulfonamide] registered an IC50 (Table 8) of 2500 to 10000 nM.

`COc1ncc(F)cc1S(=O)(=O)Nc1ccc(F)c(-c2ccc3c(C(=O)NC[C@H](O)CO)n[nH]c3c2F)c1F` [Example 3AI, 6-(2,6-difluoro-3-((5-fluoro-2-methoxypyridine)-3-sulfonamido)phenyl)-N-((R)-2,3-dihydroxypropyl)-7-fluoro-1H-indazole-3-carboxamide] had an IC50 (Table 9) of less than 500 nM.

Under “Table 9”, `Cc1ncc(F)cc1S(=O)(=O)Nc1ccc(F)c(-c2ccc3c(C(=O)Nc4cnn(C)c4)n[nH]c3c2F)c1F` [Example 3DR, 6-(2,6-difluoro-3-((5-fluoro-2-methylpyridine)-3-sulfon-amido)phenyl)-7-fluoro-N-(1-methyl-1H-pyrazol-4-yl)-1H-indazole-3-carboxamide] gave an IC50 of less than 500 nM.

The molecule `COc1ncc(Cl)cc1S(=O)(=O)Nc1ccc(F)c(-c2ccc3c(C(=O)N(C)C)n[nH]c3c2F)c1F` [Example 2AS, 6-(3-((5-chloro-2-methoxy-pyridine)-3-sulfonamido)-2,6-difluorophenyl)-7-fluoro-N,N-dimethyl-1H-indazole-3-carboxamide] gave an IC50 (Table 8) of 500 to 2500 nM.

The molecule `COc1ncc(Cl)cc1S(=O)(=O)Nc1ccc(F)c(-c2ccc3c(C(=O)Nc4cc(F)cc(Cl)c4)n[nH]c3c2F)c1F` [Example 3DA, 6-(3-((5-chloro-2-methoxy-pyridine)-3-sulfonamido)-2,6-difluorophenyl)-N-(3-chloro-5-fluorophenyl)-7-fluoro-1H-indazole-3-carboxamide] registered an IC50 (Table 9) of 2500 to 10000 nM.

Take `Cc1ncc(F)cc1S(=O)(=O)Nc1ccc(F)c(-c2ccc3c(C(=O)NCCCO)n[nH]c3c2F)c1F` [Example 3AZ, 6-(2,6-difluoro-3-((5-fluoro-2-methylpyridine)-3-sulfonamido)phenyl)-7-fluoro-N-(3-hydroxypropyl)-1H-indazole-3-carboxamide]: the concentration for half-maximal inhibition (IC50) (Table 9) is less than 500 nM.

`COc1ncc(F)cc1S(=O)(=O)Nc1ccc(F)c(-c2ccc3c(C(=O)NCC(CO)CO)n[nH]c3c2F)c1F` [Example 3AT, 6-(2,6-difluoro-3-((5-fluoro-2-methoxypyridine)-3-sulfonamido)phenyl)-7-fluoro-N-(3-hydroxy-2-(hydroxymethyl)propyl)-1H-indazole-3-carboxamide]: the concentration for half-maximal inhibition (IC50) (Table 9) is less than 500 nM.

`O=c1[nH]cccc1S(=O)(=O)Nc1ccc(F)c(-c2ccc3c(-c4ncc[nH]4)n[nH]c3c2F)c1F` [Example 2AC, N-(2,4-difluoro-3-(7-fluoro-3-(1H-imidazol-2-yl)-1H-indazol-6-yl)phenyl)-2-oxo-1,2-dihydro-pyridine-3-sulfonamide] gave an IC50 (Table 8) of 2500 to 10000 nM.

Molecule `COc1ncc(CO)cc1S(=O)(=O)Nc1ccc(F)c(-c2ccc3c(-c4ncc[nH]4)n[nH]c3c2F)c1F` [Example 3DC, N-(2,4-difluoro-3-(7-fluoro-3-(1H-imidazol-2-yl)-1H-indazol-6-yl)phenyl)-5-(hydroxylmethyl)-2-methoxypyridine-3-sulfonamide] yielded an IC50 (Table 9) of 500 to 2500 nM.

For `COc1ncc(F)cc1S(=O)(=O)Nc1ccc(F)c(-c2ccc3c(C(=O)Nc4cccn(C)c4=O)n[nH]c3c2F)c1F` [Example 3BW, 6-(2,6-difluoro-3-((5-fluoro-2-methoxypyridine)-3-sulfonamido)phenyl)-7-fluoro-N-(1-methyl-2-oxo-1,2-dihydropyridin-3-yl)-1H-indazole-3-carboxamide], the IC50 (Table 9) fell in the range of 2500 to 10000 nM.

Take `COc1ncc(F)cc1S(=O)(=O)Nc1cccc(-c2ccc3c(-c4ncc[nH]4)n[nH]c3c2Cl)c1F` [Example 18, N-(3-(7-Chloro-3-(1H-imidazol-2-yl)-1H-indazol-6-yl)-2-fluorophenyl)-5-fluoro-2-methoxypyridine-3-sulfonamide]: the IC50 (Table 9) is 500 to 2500 nM.

The molecule `COc1ncc(Cl)cc1S(=O)(=O)Nc1ccc(F)c(-c2ccc3c(NC(C)=O)n[nH]c3c2F)c1F` [Example 8, N-(6-(3-((5-Chloro-2-methoxypyridine)-3-sulfonamido)-2,6-difluorophenyl)-7-fluoro-1H-indazol-3-yl)acetamide] registered an IC50 (Table 8) of 500 to 2500 nM.

Molecule `COc1ncc(Cl)cc1S(=O)(=O)Nc1cc(F)cc(-c2ncc3c(-c4ncc[nH]4)n[nH]c3c2F)c1F` [Example 36, 5-chloro-N-[2,5-difluoro-3-[7-fluoro-3-(1H-imidazol-2-yl)-1H-pyrazolo[4,3-c]pyridin-6-yl]phenyl]-2-methoxy-pyridine-3-sulfonamide] gave an IC50 (Table 9) of less than 500 nM.

Where the note is “Table 8”, `Cn1cc(S(=O)(=O)Nc2ccc(F)c(-c3ccc4c(-c5ncc[nH]5)n[nH]c4c3F)c2F)cn1` [Example 2C, N-(2,4-difluoro-3-(7-fluoro-3-(1H-imidazol-2-yl)-1H-indazol-6-yl)phenyl)-1-methyl-1H-pyrazole-4-sulfonamide] yielded a half-maximal inhibitory concentration (IC50) of 2500 to 10000 nM.

On to `COc1nc(C)c(Cl)cc1S(=O)(=O)Nc1ccc(F)c(-c2ccc3c(-c4ncc[nH]4)n[nH]c3c2F)c1F` [Example 3DD, 5-chloro-N-(2,4-difluoro-3-(7-fluoro-3-(1H-imidazol-2-yl)-1H-indazol-6-yl)phenyl)-2-methoxy-6-methylpyridine-3-sulfonamide], for which the half-maximal inhibitory concentration (IC50) (Table 9) was less than 500 nM.

In turn, `COc1ncncc1S(=O)(=O)Nc1ccc(F)c(-c2ccc3c(-c4ncc[nH]4)n[nH]c3c2F)c1F` [Example 3CX, N-(2,4-difluoro-3-(7-fluoro-3-(1H-imidazol-2-yl)-1H-indazol-6-yl)phenyl)-4-methoxypyrimidine-5-sulfonamide] gave a concentration for half-maximal inhibition (IC50) (Table 9) of 500 to 2500 nM.

For `COc1ncc(Cl)cc1S(=O)(=O)Nc1ccc(F)c(-c2ccc3c(-c4ccccn4)n[nH]c3c2F)c1F` [Example 2CD, 5-chloro-N-(2,4-difluoro-3-(7-fluoro-3-(pyridin-2-yl)-1H-indazol-6-yl)phenyl)-2-methoxypyridine-3-sulfonamide], the half-maximal inhibitory concentration (IC50) (Table 8) lay in the range of 500 to 2500 nM.

The molecule `COc1ncc(Cl)cc1S(=O)(=O)Nc1ccc(F)c(-c2ccc3c(C(=O)Nc4cnn(C)c4)n[nH]c3c2F)c1F` [Example 3BQ, 6-(3-((5-chloro-2-methoxy-pyridine)-3-sulfonamido)-2,6-difluorophenyl)-7-fluoro-N-(1-methyl-1H-pyrazol-4-yl)-1H-indazole-3-carboxamide] yielded an IC50 (Table 9) of 500 to 2500 nM.

Take `COc1ncc(F)cc1S(=O)(=O)Nc1ccc(F)c(-c2ccc3c(C(=O)NCC4CCN(C)CC4)n[nH]c3c2F)c1F` [Example 3AK, 6-(2,6-difluoro-3-((5-fluoro-2-methoxypyridine)-3-sulfonamido)phenyl)-7-fluoro-N-((1-methylpiperidin-4-yl)methyl)-1H-indazole-3-carboxamide]: the IC50 (Table 9) is less than 500 nM.

As to `COc1ncc(F)cc1S(=O)(=O)Nc1ccc(F)c(-c2ccc3c(-c4nc(C(N)=O)c[nH]4)n[nH]c3c2F)c1F` [Example 20, 2-(6-(2,6-Difluoro-3-((5-fluoro-2-methoxypyridine)-3-sulfonamido)phenyl)-7-fluoro-1H-indazol-3-yl)-1H-imidazole-4-carboxamide], for the setting “Table 9”, the half-maximal inhibitory concentration (IC50) is less than 500 nM.

By IC50 is commonly meant the concentration that inhibits the measured activity by half.
